The results in this text go back to patent US11077090B2, “Compounds and compositions and uses thereof” (Sunovion Pharmaceuticals Inc., priority 2016, dated 2021).

In general, minimal effective dose refers to the smallest amount tested that counted as effective.

One assay relates to compound-treated mice. In words: Neuropharmacological assay (SmartCube): behavioral activity signature and minimal effective dose. The assay is classed as in vivo. To be noted: Mus musculus, ip, MED = dose having 50% or more total activity, read-out: Potency: minimal effective dose (MED). The text has this:
Neurosci. 2011 Sep. 9; 5:103 (doi: 10.3389/fnins.2011.00103) (“Roberds”). As reported in Roberds, because psychiatric diseases generally result from disorders of cell-cell communication or circuitry, intact systems are useful in detecting improvement in disease-relevant endpoints. These endpoints are typically behavioral in nature, often requiring human observation and interpretation. To facilitate testing of multiple compounds for behavioral effects relevant to psychiatric disease, PsychoGenics, Inc. (Tarrytown, N.Y., “PGI”) developed SmartCube™, an automated system in which behaviors of compound-treated mice are captured by digital video and analyzed with computer algorithms. (D. Brunner et al., Drug Discov. Today 2002, 7:S107-S112). PGI Analytical Systems uses data from SmartCube™ to compare the behavioral signature of a test compound to a database of behavioral signatures obtained using a large set of diverse reference compounds. (The composition of the database as well as validation of the method is further described in Roberds). In this way, the neuropharmacological effects of a test compound can be predicted by similarity to major classes of compounds, such as antipsychotics, anxiolytics and antidepressants.
The SmartCube™ system produces an activity signature indicating the probability that the activity of the test compound at the administered dose matches a given class of neuropharmacological agents. (See, e.g., Roberds, FIGS. 2 and 3). The test compound is simultaneously compared against multiple classes of agents; thus, a separate probability is generated for each behavioral effect measured (e.g., anxiolytic activity, analgesic activity, etc.). In the table below, these probabilities are reported for each behavioral effect measured as follows:
where LOQ is the limit of quantification.
Provided compounds were dissolved in a mixture of Pharmasolve™ (N-methyl-2-pyrrolidone), polyethylene glycol and propylene glycol, and were injected i.p. 15 min. before the behavioral test. For each compound, injections were administered at 3 different doses. For each behavioral effect measured, results for the most efficacious dose(s) are presented. In the table below, DP: anti-depressant; AX: anxiolytic; SD: sedative hypnotic; PS: anti-psychotic; MS: mood stabilizer; AD: ADHD; CE: cognitive enhancer; AG: analgesic; UN: uncharacterized CNS activity.
The potency of many of the compounds in the table was also determined in the SmartCube™ system. Test compounds were routinely examined at dose levels of 0.3, 1, 3, 10 and 30 mg per kg (mpk), although the dose range was increased or decreased if necessary to obtain a full dose response curve. A compound's minimal effective dose (MED) is a measure of the compounds potency. The MED was defined as the dose (in mpk) having 50% or more total activity in SmartCube.
Consider `N[C@H]1COCc2ccccc21` (single isomer, unassigned) [Example 112], for which the minimal effective dose lay in the range of 10 to 30 mg/kg.

On to `N[C@@H]1COCc2ccc(F)cc21` (single isomer, unassigned) [Example 113], for which the minimal effective dose lay in the range of 3 to 10 mg/kg.

`Cc1ccc2c(c1)[C@H](N)CCOC2` (single isomer, unassigned) [Example 115]: the minimal effective dose was in the range of 3 to 10 mg/kg.

As to `Cc1ccc2c(c1)[C@@H](N)CCOC2` (single isomer, unassigned) [Example 116], the minimal effective dose fell in the range of 3 to 10 mg/kg.

Turning to `N[C@@H]1COCc2ccc(Cl)c(Cl)c21` (single isomer, unassigned) [Example 119], the minimal effective dose was less than 3 mg/kg.

`N[C@H]1COCc2ccc(Cl)c(Cl)c21` (single isomer, unassigned) [Example 120]: the minimal effective dose fell in the range of 3 to 10 mg/kg.

As for `COc1ccc2c(c1)[C@H](N)COC2` (single isomer, unassigned) [Example 121], the minimal effective dose is less than 3 mg/kg.

For `COc1ccc2c(c1)[C@@H](N)COC2` (single isomer, unassigned) [Example 122], the minimal effective dose was less than 3 mg/kg.

As for `Cc1cc(C)c2c(c1)[C@H](N)COC2` (single isomer, unassigned) [Example 125], the minimal effective dose is less than 3 mg/kg.

For `Cc1cc(C)c2c(c1)[C@@H](N)COC2` (single isomer, unassigned) [Example 126], the minimal effective dose is less than 3 mg/kg.

Staying with this assay, now noted: i.p. 15 min before test, most efficacious dose(s).
Consider `N[C@H]1COCc2ccccc21` (single isomer, unassigned) [Example 112], for which the “AD: ADHD (probability of activity signature)” value (“AD: ADHD” below) is listed as “+ (LOQ ≤ + <5%)”, the “AG: analgesic (probability of activity signature)” value (“AG: analgesic” for short) was “++ (5% ≤ ++ <25%)”, the “AX: anxiolytic (probability of activity signature)” value (shortened to “AX: anxiolytic”) is “++ (5% ≤ ++ <25%)” and the “CE: cognitive enhancer (probability of activity signature)” value (“CE: cognitive enhancer” for short) is “+++ (25% ≤ +++ <50%)”. For the same compound, the “DP: anti-depressant (probability of activity signature)” value (“DP: anti-depressant” below) was “++ (5% ≤ ++ <25%)”, the “MS: mood stabilizer (probability of activity signature)” value (“MS: mood stabilizer” below) is on record as “+ (LOQ ≤ + <5%)”, the “PS: anti-psychotic (probability of activity signature)” value (“PS: anti-psychotic” below) was “++ (5% ≤ ++ <25%)” and the “SD: sedative hypnotic (probability of activity signature)” value (shortened to “SD: sedative hypnotic”) is reported as “+ (LOQ ≤ + <5%)”. Also, the “UN: uncharacterized CNS activity (probability of activity signature)” value (“UN: uncharacterized CNS activity” below) is on record as “+ (LOQ ≤ + <5%)”.

For the compound `N[C@@H]1COCc2ccc(F)cc21` (single isomer, unassigned) [Example 113], the “AD: ADHD” value is reported as “+ (LOQ ≤ + <5%)”, the “AG: analgesic” value is given as “++ (5% ≤ ++ <25%)”, the “AX: anxiolytic” value is recorded as “++ (5% ≤ ++ <25%)” and the “CE: cognitive enhancer” value was “++ (5% ≤ ++ <25%)”. For the same compound, the “DP: anti-depressant” value was “++ (5% ≤ ++ <25%)”, the “MS: mood stabilizer” value is listed as “+ (LOQ ≤ + <5%)”, the “PS: anti-psychotic” value was “++ (5% ≤ ++ <25%)” and the “SD: sedative hypnotic” value is “+ (LOQ ≤ + <5%)”. Moreover, the “UN: uncharacterized CNS activity” value is “+++ (25% ≤ +++ <50%)”.

Consider `Cc1ccc2c(c1)[C@H](N)CCOC2` (single isomer, unassigned) [Example 115], for which the “AD: ADHD” value is reported as “+ (LOQ ≤ + <5%)”, the “AG: analgesic” value is “++ (5% ≤ ++ <25%)”, the “AX: anxiolytic” value is recorded as “++ (5% ≤ ++ <25%)” and the “CE: cognitive enhancer” value is listed as “++ (5% ≤ ++ <25%)”. Besides, the “DP: anti-depressant” value was “++ (5% ≤ ++ <25%)”, the “MS: mood stabilizer” value is “+ (LOQ ≤ + <5%)”, the “PS: anti-psychotic” value was “+++ (25% ≤ +++ <50%)” and the “SD: sedative hypnotic” value is “++ (5% ≤ ++ <25%)”. The “UN: uncharacterized CNS activity” value is recorded as “+++ (25% ≤ +++ <50%)”.

As for `Cc1ccc2c(c1)[C@@H](N)CCOC2` (single isomer, unassigned) [Example 116], the “AD: ADHD” value was “+ (LOQ ≤ + <5%)”, the “AG: analgesic” value is “++ (5% ≤ ++ <25%)”, the “AX: anxiolytic” value is “++ (5% ≤ ++ <25%)” and the “CE: cognitive enhancer” value is “++ (5% ≤ ++ <25%)”. For the same compound, the “DP: anti-depressant” value was “++ (5% ≤ ++ <25%)”, the “MS: mood stabilizer” value is “+ (LOQ ≤ + <5%)”, the “PS: anti-psychotic” value is “++ (5% ≤ ++ <25%)” and the “SD: sedative hypnotic” value is recorded as “+++ (25% ≤ +++ <50%)”. Further, the “UN: uncharacterized CNS activity” value is recorded as “+++ (25% ≤ +++ <50%)”.

As for `N[C@@H]1COCc2ccc(Cl)c(Cl)c21` (single isomer, unassigned) [Example 119], the “AD: ADHD” value is “+ (LOQ ≤ + <5%)”, the “AG: analgesic” value was “++ (5% ≤ ++ <25%)”, the “AX: anxiolytic” value is reported as “+++ (25% ≤ +++ <50%)” and the “CE: cognitive enhancer” value was “++ (5% ≤ ++ <25%)”. Besides, the “DP: anti-depressant” value was “++ (5% ≤ ++ <25%)”, the “MS: mood stabilizer” value was “+ (LOQ ≤ + <5%)”, the “PS: anti-psychotic” value is given as “++ (5% ≤ ++ <25%)” and the “SD: sedative hypnotic” value is listed as “++ (5% ≤ ++ <25%)”. Moreover, the “UN: uncharacterized CNS activity” value is on record as “++++ (50% ≤ ++++)”.

For the compound `N[C@H]1COCc2ccc(Cl)c(Cl)c21` (single isomer, unassigned) [Example 120], the “AD: ADHD” value is reported as “+ (LOQ ≤ + <5%)”, the “AG: analgesic” value is “++ (5% ≤ ++ <25%)”, the “AX: anxiolytic” value is listed as “+++ (25% ≤ +++ <50%)” and the “CE: cognitive enhancer” value is reported as “++ (5% ≤ ++ <25%)”. Also, the “DP: anti-depressant” value is on record as “++ (5% ≤ ++ <25%)”, the “MS: mood stabilizer” value is “+ (LOQ ≤ + <5%)”, the “PS: anti-psychotic” value is listed as “++ (5% ≤ ++ <25%)” and the “SD: sedative hypnotic” value is reported as “++ (5% ≤ ++ <25%)”. For the same compound, the “UN: uncharacterized CNS activity” value is listed as “++ (5% ≤ ++ <25%)”.

For the compound `COc1ccc2c(c1)[C@H](N)COC2` (single isomer, unassigned) [Example 121], the “AD: ADHD” value is listed as “+ (LOQ ≤ + <5%)”, the “AG: analgesic” value is recorded as “++ (5% ≤ ++ <25%)”, the “AX: anxiolytic” value was “++ (5% ≤ ++ <25%)” and the “CE: cognitive enhancer” value is given as “++ (5% ≤ ++ <25%)”. Moreover, the “DP: anti-depressant” value is recorded as “++ (5% ≤ ++ <25%)”, the “MS: mood stabilizer” value is “+ (LOQ ≤ + <5%)”, the “PS: anti-psychotic” value was “++ (5% ≤ ++ <25%)” and the “SD: sedative hypnotic” value was “++ (5% ≤ ++ <25%)”. The “UN: uncharacterized CNS activity” value is reported as “+++ (25% ≤ +++ <50%)”.

`COc1ccc2c(c1)[C@@H](N)COC2` (single isomer, unassigned) [Example 122]: the “AD: ADHD” value is recorded as “+ (LOQ ≤ + <5%)”, the “AG: analgesic” value is given as “++ (5% ≤ ++ <25%)”, the “AX: anxiolytic” value is reported as “+++ (25% ≤ +++ <50%)” and the “CE: cognitive enhancer” value was “+++ (25% ≤ +++ <50%)”. Also, the “DP: anti-depressant” value is recorded as “++ (5% ≤ ++ <25%)”, the “MS: mood stabilizer” value is “+ (LOQ ≤ + <5%)”, the “PS: anti-psychotic” value is “++ (5% ≤ ++ <25%)” and the “SD: sedative hypnotic” value is “++ (5% ≤ ++ <25%)”. The “UN: uncharacterized CNS activity” value is “+++ (25% ≤ +++ <50%)”.

Take `Cc1cc(C)c2c(c1)[C@H](N)COC2` (single isomer, unassigned) [Example 125]: the “AD: ADHD” value is on record as “+ (LOQ ≤ + <5%)”, the “AG: analgesic” value was “+ (LOQ ≤ + <5%)”, the “AX: anxiolytic” value is “++ (5% ≤ ++ <25%)” and the “CE: cognitive enhancer” value is reported as “++ (5% ≤ ++ <25%)”. For the same compound, the “DP: anti-depressant” value is reported as “++ (5% ≤ ++ <25%)”, the “MS: mood stabilizer” value was “+ (LOQ ≤ + <5%)”, the “PS: anti-psychotic” value is “++ (5% ≤ ++ <25%)” and the “SD: sedative hypnotic” value is recorded as “++ (5% ≤ ++ <25%)”. Further, the “UN: uncharacterized CNS activity” value is “++++ (50% ≤ ++++)”.

On to `Cc1cc(C)c2c(c1)[C@@H](N)COC2` (single isomer, unassigned) [Example 126], for which the “AD: ADHD” value was “+ (LOQ ≤ + <5%)”, the “AG: analgesic” value is recorded as “++ (5% ≤ ++ <25%)”, the “AX: anxiolytic” value is listed as “++ (5% ≤ ++ <25%)” and the “CE: cognitive enhancer” value is recorded as “++ (5% ≤ ++ <25%)”. Also, the “DP: anti-depressant” value is given as “++ (5% ≤ ++ <25%)”, the “MS: mood stabilizer” value was “+ (LOQ ≤ + <5%)”, the “PS: anti-psychotic” value is given as “+++ (25% ≤ +++ <50%)” and the “SD: sedative hypnotic” value is recorded as “+ (LOQ ≤ + <5%)”. Besides, the “UN: uncharacterized CNS activity” value is reported as “++++ (50% ≤ ++++)”.
